Holding throughout (format): cell-based, human
Experiment [1] concerns SH-SY5Y cells. The experiment in a line: Clonogenic survival of SH-SY5Y cells. Conditions: 100 μM 7-NI or 20 nM siRNA (SEQ ID NO: 4), n=4. On the procedure:
In FIGS. 3A-3B, for quantitative analysis data, all individual data series are presented as biological replicates (n=4) for all groups. Data are presented as mean±SEM. Statistical significance was determined using a One-way ANOVA followed by Fisher's LSD multiple comparison post hoc test. *P<0.05, **P<0.01, and ns=not significant.
FIG. 3A: Representative well images of clonogenic growth following administration of the control (“SH-SY5Y”), 0.1% DMSO (“SH-SY5Y+NC”), 100 μM 7-NI (“SH-SY5Y+7-NI”), or 20 nM siRNA (SEQ ID NO: 4) (“SH-SY5Y+si-nNOS”).
FIG. 3B: Quantitative analysis of clonogenic survival for the experiments of FIG. 3A.

Experiment [2] relates to SH-SY5Y cells. Put plainly: NADPH-diaphorase activity assay (NOS activity) in SH-SY5Y cell lysates. Particulars: 100 μM 7-NI, 24 hr. On the procedure: (§1) Human neuroblastoma (“NB”) SH-SY5Y cells were obtained from the American Type Culture Collection (ATCC) and maintained in Dulbecco's modified Eagle's medium (DMEM) and Ham's F-12 (1:1) supplemented with 10% fetal bovine serum, 2 mM L-glutamine, and 100 U/ml penicillin-G/[…] streptomycin in the humidified atmosphere (37° C., 5% CO2). Cells were plated onto 25 cm^2 and 75 cm^2 at a density of […] respectively for Western blotting (WB) and 1×10^5 for immunofluorescence. The SH-SY5Y cells were treated with 100 μM 7-nitroindazole (7-NI) for 24 hr. This concentration was confirmed in the dose-response experiment (FIG. 1) using an MTT viability assay.
The NADPH-diaphorase activity assay was used to determine the NOS activity based on the NADPH-dependent reduction of nitro-blue tetrazolium salt (NBT) to visible formazan. SH-SYSY cells grown in six-well culture plates were lysed in 50 mM Tris-HCl buffer (pH 7.4), containing 0.1% Triton X-100, 2 mM EDTA, and a protease inhibitor cocktail (Sigma, St. Louis, MO). […] After a 15 min incubation period at 37° C., the production of formazan was measured spectrophotometrically at 585 nm. The data were expressed as absorbance units and normalized for the protein content of each sample. Protein concentration was measured by the bicinchoninic acid (BCA) protein assay using BSA as a standard. […]

Experiment [3] concerns SH-SY5Y cells. The experiment in a line: Clonogenic survival assay in SH-SY5Y cells. Particulars: 7-NI, 14 days. As for the experimental part:
Cells were seeded into 6-well plates at concentrations of 500/well or 1000/well in triplicates. After 24 hours, 7-NI was added, or cells were transiently transfected with siRNA-nNOS, as described above (SEQ ID NO: 4), before changing to serum-containing medium. Cells were incubated for 14 days to form visible colonies. Colonies were stained with crystal violet, washed with PBS, air-dried, and imaged. The colonies were visualized using ImageJ software. Cell colonies of greater than 50 cells were identified and counted.

Experiment [4] has as its system SH-SY5Y cells. Put plainly: Western blot of SH-SY5Y cells (3-Ntyr, mTOR pathway proteins, synaptophysin). Conditions: 100 μM 7-NI, 24 hr. As for the experimental part: as §1
(§2) Cells were lysed in ice-cold RIPA buffer containing 50 mM Tris-HCl, 1% Nonidet P-40, 0.25% sodium deoxycholate, 150 mM NaCl, protease-, and phosphatase inhibitor cocktails, pH 7.4. After sonication, the lysates were centrifuged at 17,000 g for 30 min at 4° C., and the supernatant was collected. The protein concentrations were determined with the BCA protein assay. Proteins were resolved by SDS-PAGE, transferred to a PVDF membrane, and probed with the following antibodies: anti-pMTOR (rabbit, diluted 1:1000), anti-mTOR (rabbit, diluted 1:1000), anti-TSC2 (rabbit, diluted 1:1000), anti-nNOS (rabbit, diluted 1:1000), anti-pAKT (rabbit, diluted 1:1000), anti-AKT (rabbit, diluted 1: 1000), anti-pRPS6 (rabbit, diluted 1:1000), anti-RPS6 (mouse, diluted 1:1000), anti-synaptophysin (mouse, diluted 1:1000), anti-β-actin (rabbit, diluted 1:1000), anti-3-Nitrotyrosine (rabbit, diluted 1:5000) from Abcam. All primary antibodies, except anti-3-Nitrotyrosine, were purchased from Cell Signaling Technology. The blots were then visualized using an enhanced chemiluminescence (ECL) system.
SH-SY5Y cells were plated in 6 well plates, as well as on 22 mm^2 coverslips at a density of 6.0×10^4 cells/cm^2 and transfected with 20 nM nNOS siRNA (SEQ ID NO: 4) for 24 h, with the use of Lipofectamine RNAi MAX (56530, Invitrogen) according to the manufacturer's protocol. Then cells were washed with phosphate-buffered saline (PBS) and harvested for WB and fixed for immunofluorescence.
On the technique in general: In western blotting, separated proteins are transferred to a membrane and probed.

For experiment [5], the system named is U87-MG cells. The experiment in a line: Western blot of U87-MG cells (3-Ntyr, CD70, iNOS, nNOS). Conditions: vs control and vehicle. On the procedure:
Human glioblastoma U87-MG cells were obtained from the American Type Culture Collection (ATCC) and maintained in Dulbecco's modified Eagle's Medium (DMEM) and Ham's F-12 (1:1) supplemented with 10% fetal bovine serum, 2 mM L-glutamine, and 100 U/ml penicillin-G/[…] streptomycin in the humidified atmosphere (37° C., 5% CO2). Cells were plated onto 25 cm^2 and 75 cm^2 at a density of […] respectively for Western blotting (WB) and 1×10^5 for immunofluorescence. The U87-MG cells were treated with 100 μM 7-nitroindazole (7-NI) for 24 hr. This concentration was confirmed in the dose-response experiment (FIG. 7) using an MTT viability assay.
as §2, with “anti-CD70” for “anti-pMTOR”, “and” for “anti-mTOR (rabbit, diluted 1:1000), anti-TSC2 (rabbit, diluted 1:1000), anti-nNOS (rabbit, diluted 1:1000), anti-pAKT (rabbit, diluted 1:1000), anti-AKT (rabbit, diluted 1: 1000), anti-pRPS6 (rabbit, diluted 1:1000), anti-RPS6 (mouse, diluted 1:1000), anti-synaptophysin (mouse, diluted 1:1000), anti-β-actin (rabbit, diluted 1:1000),”

Where [6] appears, read: 7-NI, not statistically significantly.

For the compound `O=[N+]([O-])c1cccc2cn[nH]c12` [7-NI, 7-nitroindazole], the clonogenic survival entry in experiment [1] is on record as “significant decrease”. For the same compound, the “NADPH diaphorase activity (NOS activity)” value in experiment [2] is “significantly inhibited”. Further, the number of colonies result in experiment [3] was “decrease”. Besides, in experiment [4], the 3-Ntyr levels entry is “halved”, the “levels of TSC-2” value is listed as “significant increase”, the levels of synaptophysin result is “significantly decreased” and the “phosphorylation of RPS6” value was “reduced”. Besides, in experiment [4], the “phosphorylation of mTOR” value is “decrease” and the “phosphorylation of protein kinase-B (AKT)” value is “reduced”. Moreover, in experiment [5] (100 μM 7-NI, 24 hr), the 3-Ntyr levels entry is given as “significantly reduced”. In addition, the “expression level of iNOS” value in experiment [5] (7-NI) is “unchanged”. In addition, in experiment [5] (setting [6]), the “expression level of CD70” value was “slightly decreased” and the “expression level of nNOS” value was “slightly decreased”.
